Results: ChEMBL document CHEMBL1152547, “Synthesis and evaluation of anticancer activity of 2-arylamino-6-trifluoromethyl-3-(hydrazonocarbonyl)pyridines” (Bioorg Med Chem, 2009)

How the values were obtained:
[1] = Cytotoxicity against human NCI60 cells assessed as cell growth at 10 uM after 48 hrs by sulforhodamine B assay; format: functional; conditions: NCI60, 48 h, read-out: Activity
[2] = Cytotoxicity against human NCI60 cells after 48 hrs by sulforhodamine B assay; format: functional; conditions: NCI60, 48 h, read-out: pTGI (converted)
HOP-92 = test: Cytotoxicity against human HOP92 cells after 48 hrs by sulforhodamine B assay; format: functional; conditions: HOP-92, 48 h
SF-295 = test: Cytotoxicity against human SF295 cells after 48 hrs by sulforhodamine B assay; format: functional; conditions: SF-295, 48 h
PC-3 = test: Cytotoxicity against human PC3 cells after 48 hrs by sulforhodamine B assay; format: functional; conditions: PC-3, 48 h
MDA-MB-468 = test: Cytotoxicity against human MDA-MB-468 cells after 48 hrs by sulforhodamine B assay; format: functional; conditions: MDA-MB-468, 48 h
NCI-H226 = test: Cytotoxicity against human NCI-H226 cells after 48 hrs by sulforhodamine B assay; format: functional; conditions: NCI-H226, 48 h
EKVX = test: Cytotoxicity against human EKVX cells after 48 hrs by sulforhodamine B assay; format: functional
BT-549 = test: Cytotoxicity against human BT549 cells after 48 hrs by sulforhodamine B assay; format: functional; conditions: BT-549, 48 h
[3] = Toxicity in ip dosed athymic mouse assessed as body weight loss administered as single dose measured after 2 weeks; format: organism-based; conditions: in vivo
TK-10 = test: Cytotoxicity against human TK10 cells after 48 hrs by sulforhodamine B assay; format: functional; conditions: TK-10, 48 h
CAKI-1 = test: Cytotoxicity against human Caki1 cells after 48 hrs by sulforhodamine B assay; format: functional; conditions: CAKI-1, 48 h
MCF7 = test: Cytotoxicity against human MCF7 cells after 48 hrs by sulforhodamine B assay; format: functional; conditions: MCF7, 48 h
MDA-MB-231 = test: Cytotoxicity against human MDA-MB-231 cells after 48 hrs by sulforhodamine B assay; format: functional; conditions: MDA-MB-231, 48 h
[4] = Toxicity in ip dosed athymic mouse assessed as lethality administered as single dose measured after 2 weeks; format: organism-based; conditions: in vivo
T47D = test: Cytotoxicity against human T47D cells after 48 hrs by sulforhodamine B assay; format: functional

Which results are given for `Cc1cc(Cl)ccc1Nc1nc(C(F)(F)F)ccc1C(=O)N/N=C/c1c(Cl)cccc1Cl`?
growth at 10 µM [1]: -6.89%; TGI [2]: 11700 nM; GI50 (HOP-92): 191 nM; TGI (HOP-92; read-out: pTGI (converted)): 537 nM; GI50 (SF-295): 24 nM; TGI (SF-295; read-out: pTGI (converted)): 295 nM; GI50 (PC-3): 229 nM; TGI (PC-3; read-out: pTGI (converted)): 871 nM; GI50 (MDA-MB-468): 275 nM; TGI (MDA-MB-468; read-out: pTGI (converted)): 851 nM; GI50 (NCI-H226): 135 nM; TGI (NCI-H226; read-out: pTGI (converted)): 525 nM; GI50 (EKVX): 195 nM; TGI (EKVX; read-out: pTGI (converted)): 708 nM; GI50 (BT-549): 195 nM; TGI (BT-549; read-out: pTGI (converted)): 676 nM; MTD at 336 h [3]: 400 mg/kg; GI50 (TK-10): 224 nM; TGI (TK-10; read-out: pTGI (converted)): 794 nM; GI50 (CAKI-1): 12.6 nM; CC50 (CAKI-1; read-out: pLC50 (the source's name) (converted)): 43700 nM; TGI (CAKI-1; read-out: pTGI (converted)): 324 nM; GI50 (MCF7): 234 nM; TGI (MCF7; read-out: pTGI (converted)): 741 nM; GI50 (MDA-MB-231): 155 nM; TGI (MDA-MB-231; read-out: pTGI (converted)): 851 nM; MTD at 336 h [4]: 400 mg/kg; GI50 (T47D): 224 nM; TGI (T47D; read-out: pTGI (converted)): 794 nM
